In paper PMC3202625, “Pyruvate Kinase Triggers a Metabolic Feedback Loop that Controls Redox Metabolism in Respiring Cells” (Cell Metabolism, 2011) one finds IC50, Ki and Km data, which are given here for two compounds.

Experiment [1] deals with T1, rabbit TPI (purified from muscle) (Oryctolagus cuniculus, UniProt P00939).
T1 construct: gene TPI1; native enzyme purified from rabbit muscle; homodimer
Briefly: TPI activity assay, PEP titration. Format: biochemical. An excerpt:
TPI activity assay, PEP titration on rabbit TPI (purified from muscle) | IC50 values and the inhibitory constant Ki are given in μM

For experiment [2], the target named is T2, human TPI (expressed in yeast) (Homo sapiens, UniProt P60174).
T2 construct: gene TPI1; human TPI expressed in transgenic yeast lacking endogenous TPI1; extract, activity normalized to total cellular protein; homodimer
Kind of experiment: TPI activity assay, PEP titration; Ki by Cheng-Prusoff equation. Format: biochemical.

The target of experiment [3] is T2, human TPI (expressed in yeast). Briefly: TPI activity assay, PEP titration. Format: cell-based. An excerpt: TPI activity assay, PEP titration on human TPI (expressed in yeast) | IC50 values and the inhibitory constant Ki are given in μM
The target of experiment [4] is T3, yeast TPI (endogenous) (Saccharomyces cerevisiae, UniProt P00942).
T3 construct: gene TPI1; endogenous full-length enzyme in yeast extract, activity normalized to total cellular protein; homodimer
T3 sequence (P00942 2-248): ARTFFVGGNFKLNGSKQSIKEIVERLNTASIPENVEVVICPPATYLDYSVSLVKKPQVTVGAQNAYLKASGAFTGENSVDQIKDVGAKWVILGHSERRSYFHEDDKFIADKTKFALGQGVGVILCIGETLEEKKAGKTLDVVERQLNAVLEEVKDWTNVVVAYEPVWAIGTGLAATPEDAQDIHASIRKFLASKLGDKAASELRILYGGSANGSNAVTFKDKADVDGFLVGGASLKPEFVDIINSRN
Briefly: TPI activity assay, PEP titration. Format: cell-based. As to conditions: substrate gly3p, yeast extract. An excerpt: TPI activity assay, PEP titration on yeast TPI (endogenous) | IC50 values and the inhibitory constant Ki are given in μM

In experiment [5] the target is T1, rabbit TPI (purified from muscle). Briefly: TPI activity assay, PEP titration; Ki by Cheng-Prusoff equation. Format: biochemical.
For experiment [6], the target named is T3, yeast TPI (endogenous). Described as above. The conditions noted are these: substrate gly3p, yeast extract. Format: biochemical.
For experiment [7], the target named is T3, yeast TPI (endogenous). Briefly: TPI activity assay, Michaelis-Menten kinetics. Format: biochemical. As to conditions: yeast extract, no PEP.

T1 sequence (P00939 2-249): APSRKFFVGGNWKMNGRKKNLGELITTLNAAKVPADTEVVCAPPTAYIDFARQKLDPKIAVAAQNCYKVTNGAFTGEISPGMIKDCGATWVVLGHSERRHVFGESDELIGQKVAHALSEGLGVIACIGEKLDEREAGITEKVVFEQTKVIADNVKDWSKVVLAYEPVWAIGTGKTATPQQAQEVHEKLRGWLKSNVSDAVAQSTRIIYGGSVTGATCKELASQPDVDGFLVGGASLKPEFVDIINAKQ
T2 sequence (P60174 2-249): as the sequence (P00939 2-249) above, with K19Q, N20S, T26G, S118A counted along it

Consider `C=C(OP(=O)(O)O)C(=O)O` [PEP], for which the figures for the IC50 (in experiment [1]; in experiment [3]; at yeast TPI (endogenous) [4]) were 515 µM, 531 µM and 1130 µM, respectively. Besides, the Ki came out at 163 µM in experiment [2], 156 µM in experiment [5] and 392 µM at yeast TPI (endogenous) [6].
As for `O=C[C@H](O)COP(=O)(O)O` [gly3p], the Michaelis-Menten constant (Km) on yeast TPI (endogenous) [7] came to 854 µM.

The term IC50 denotes the concentration needed to halve the response being measured. Low values mean greater potency, high ones weaker potency. Broadly, the Ki is the dissociation constant of the complex between target and ligand, obtained from inhibition or displacement. Low values mean higher affinity, high ones lower affinity. Broadly, the Km is the substrate concentration at which the rate is half of its maximum.
